# Measured values published in PubChem BioAssay (NCI).
#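 GI50 is the concentration that inhibits growth by half. TGI is the concentration that stops growth completely.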
# Key:
# Test in all cases: growth of human tumour cells (NCI), 384-well format
# MDA-MB-468 breast = test system: MDA-MB-468 breast
# T-47D breast = test system: T-47D breast
# DU-145 prostate = test system: DU-145 prostate
# SK-MEL-28 melanoma = test system: SK-MEL-28 melanoma
# 786-0 renal = test system: 786-0 renal
# NCI/ADR-RES ovarian = test system: NCI/ADR-RES ovarian
# MOLT-4 leukemia = test system: MOLT-4 leukemia
# U251 glioblastoma = test system: U251 glioblastoma
# SNB-19 CNS = test system: SNB-19 CNS
# HOP-92 NSCLC = test system: HOP-92 NSCLC
# SN12C renal = test system: SN12C renal
# HCT-15 colon = test system: HCT-15 colon
# A498 renal = test system: A498 renal
# SR leukemia = test system: SR leukemia
# OVCAR-3 ovarian = test system: OVCAR-3 ovarian
# SK-MEL-2 melanoma = test system: SK-MEL-2 melanoma
# CCRF-CEM leukemia = test system: CCRF-CEM leukemia
# IGROV1 ovarian = test system: IGROV1 ovarian
# NCI-H522 lung = test system: NCI-H522 lung
# EKVX NSCLC = test system: EKVX NSCLC
# OVCAR-8 ovarian = test system: OVCAR-8 ovarian
# SF-268 CNS = test system: SF-268 CNS
# K-562 leukemia = test system: K-562 leukemia
# COLO 205 colon = test system: COLO 205 colon
# SW-620 colon = test system: SW-620 colon
# SK-OV-3 ovarian = test system: SK-OV-3 ovarian
# HT29 colon = test system: HT29 colon
# A549 NSCLC = test system: A549 NSCLC
# SF-539 CNS = test system: SF-539 CNS
# TK-10 renal = test system: TK-10 renal
# SF-295 CNS = test system: SF-295 CNS
# MDA-MB-231 breast = test system: MDA-MB-231 breast
# NCI-H322M lung = test system: NCI-H322M lung
# UO-31 renal = test system: UO-31 renal
# MCF7 breast = test system: MCF7 breast
# M14 melanoma = test system: M14 melanoma
# KM12 colon = test system: KM12 colon
# OVCAR-4 ovarian = test system: OVCAR-4 ovarian
# RXF 393 renal = test system: RXF 393 renal
# PC-3 prostate = test system: PC-3 prostate
# CAKI-1 renal = test system: CAKI-1 renal
# NCI-H460 NSCLC = test system: NCI-H460 NSCLC
# BT-549 breast = test system: BT-549 breast
# ACHN renal = test system: ACHN renal
# UACC-62 melanoma = test system: UACC-62 melanoma
# RPMI-8226 leukemia = test system: RPMI-8226 leukemia
# SK-MEL-5 melanoma = test system: SK-MEL-5 melanoma
# NCI-H23 lung = test system: NCI-H23 lung
smiles,measurement,setting,value
COc1cc(C)[nH]c(=O)c1CN1CCc2c(Cl)cc([C@H](OC)C3COC3)c(Cl)c2C1=O,GI50,MDA-MB-468 breast,> 100 µM
same,TGI,MDA-MB-468 breast,> 100 µM
same,GI50,T-47D breast,> 91.9 µM
same,TGI,T-47D breast,> 100 µM
same,GI50,DU-145 prostate,> 100 µM
same,TGI,DU-145 prostate,> 100 µM
same,GI50,SK-MEL-28 melanoma,> 100 µM
same,TGI,SK-MEL-28 melanoma,> 100 µM
same,GI50,786-0 renal,> 100 µM
same,TGI,786-0 renal,> 100 µM
same,GI50,NCI/ADR-RES ovarian,> 100 µM
same,TGI,NCI/ADR-RES ovarian,> 100 µM
same,GI50,MOLT-4 leukemia,> 100 µM
same,TGI,MOLT-4 leukemia,> 100 µM
same,GI50,U251 glioblastoma,> 100 µM
same,TGI,U251 glioblastoma,> 100 µM
same,GI50,SNB-19 CNS,> 100 µM
same,TGI,SNB-19 CNS,> 100 µM
same,GI50,HOP-92 NSCLC,> 100 µM
same,TGI,HOP-92 NSCLC,> 100 µM
same,GI50,SN12C renal,> 100 µM
same,TGI,SN12C renal,> 100 µM
same,GI50,HCT-15 colon,> 100 µM
same,TGI,HCT-15 colon,> 100 µM
same,GI50,A498 renal,> 100 µM
same,TGI,A498 renal,> 100 µM
same,GI50,SR leukemia,> 100 µM
same,TGI,SR leukemia,> 100 µM
same,GI50,OVCAR-3 ovarian,> 100 µM
same,TGI,OVCAR-3 ovarian,> 100 µM
same,GI50,SK-MEL-2 melanoma,> 100 µM
same,TGI,SK-MEL-2 melanoma,> 100 µM
same,GI50,CCRF-CEM leukemia,> 75.8 µM
same,TGI,CCRF-CEM leukemia,> 100 µM
same,GI50,IGROV1 ovarian,> 100 µM
same,TGI,IGROV1 ovarian,> 100 µM
same,GI50,NCI-H522 lung,> 100 µM
same,TGI,NCI-H522 lung,> 100 µM
same,GI50,EKVX NSCLC,> 100 µM
same,TGI,EKVX NSCLC,> 100 µM
same,GI50,OVCAR-8 ovarian,> 100 µM
same,TGI,OVCAR-8 ovarian,> 100 µM
same,GI50,SF-268 CNS,> 100 µM
same,TGI,SF-268 CNS,> 100 µM
same,GI50,K-562 leukemia,> 100 µM
same,TGI,K-562 leukemia,> 100 µM
same,GI50,COLO 205 colon,> 100 µM
same,TGI,COLO 205 colon,> 100 µM
same,GI50,SW-620 colon,> 100 µM
same,TGI,SW-620 colon,> 100 µM
same,GI50,SK-OV-3 ovarian,> 100 µM
same,TGI,SK-OV-3 ovarian,> 100 µM
same,GI50,HT29 colon,> 100 µM
same,TGI,HT29 colon,> 100 µM
same,GI50,A549 NSCLC,> 100 µM
same,TGI,A549 NSCLC,> 100 µM
same,GI50,SF-539 CNS,> 100 µM
same,TGI,SF-539 CNS,> 100 µM
same,GI50,TK-10 renal,> 100 µM
same,TGI,TK-10 renal,> 100 µM
same,GI50,SF-295 CNS,> 100 µM
same,TGI,SF-295 CNS,> 100 µM
same,GI50,MDA-MB-231 breast,> 78.3 µM
same,TGI,MDA-MB-231 breast,> 100 µM
same,GI50,NCI-H322M lung,> 100 µM
same,TGI,NCI-H322M lung,> 100 µM
same,GI50,UO-31 renal,> 100 µM
same,TGI,UO-31 renal,> 100 µM
same,GI50,MCF7 breast,> 100 µM
same,TGI,MCF7 breast,> 100 µM
same,GI50,M14 melanoma,> 100 µM
same,TGI,M14 melanoma,> 100 µM
same,GI50,KM12 colon,> 100 µM
same,TGI,KM12 colon,> 100 µM
same,GI50,OVCAR-4 ovarian,> 100 µM
same,TGI,OVCAR-4 ovarian,> 100 µM
same,GI50,RXF 393 renal,> 100 µM
same,TGI,RXF 393 renal,> 100 µM
same,GI50,PC-3 prostate,> 100 µM
same,TGI,PC-3 prostate,> 100 µM
same,GI50,CAKI-1 renal,> 100 µM
same,TGI,CAKI-1 renal,> 100 µM
same,GI50,NCI-H460 NSCLC,> 100 µM
same,TGI,NCI-H460 NSCLC,> 100 µM
same,GI50,BT-549 breast,> 100 µM
same,TGI,BT-549 breast,> 100 µM
same,GI50,ACHN renal,> 100 µM
same,TGI,ACHN renal,> 100 µM
same,GI50,UACC-62 melanoma,> 100 µM
same,TGI,UACC-62 melanoma,> 100 µM
same,GI50,RPMI-8226 leukemia,0.0849 µM
same,GI50,SK-MEL-5 melanoma,> 100 µM
same,TGI,SK-MEL-5 melanoma,> 100 µM
same,GI50,NCI-H23 lung,> 100 µM
same,TGI,NCI-H23 lung,> 100 µM
C[C@@H](Oc1cc(NS(=O)(=O)N2CCC2)nc(SCc2cccc(F)c2F)n1)[C@@H](O)CO,GI50,MDA-MB-468 breast,> 78.2 µM
same,TGI,MDA-MB-468 breast,> 100 µM
same,GI50,T-47D breast,> 100 µM
same,TGI,T-47D breast,> 100 µM
same,GI50,DU-145 prostate,> 100 µM
same,TGI,DU-145 prostate,> 100 µM
same,GI50,SK-MEL-28 melanoma,> 100 µM
same,TGI,SK-MEL-28 melanoma,> 100 µM
same,GI50,786-0 renal,> 100 µM
same,TGI,786-0 renal,> 100 µM
same,GI50,NCI/ADR-RES ovarian,> 100 µM
same,TGI,NCI/ADR-RES ovarian,> 100 µM
same,GI50,MOLT-4 leukemia,> 61.8 µM
same,TGI,MOLT-4 leukemia,> 100 µM
same,GI50,U251 glioblastoma,> 100 µM
same,TGI,U251 glioblastoma,> 100 µM
same,GI50,SNB-19 CNS,> 100 µM
same,TGI,SNB-19 CNS,> 100 µM
same,GI50,HOP-92 NSCLC,> 88.1 µM
same,TGI,HOP-92 NSCLC,> 100 µM
same,GI50,SN12C renal,> 100 µM
same,TGI,SN12C renal,> 100 µM
same,GI50,HCT-15 colon,> 100 µM
same,TGI,HCT-15 colon,> 100 µM
same,GI50,A498 renal,> 79 µM
same,TGI,A498 renal,> 100 µM
same,GI50,SR leukemia,> 100 µM
same,TGI,SR leukemia,> 100 µM
same,GI50,OVCAR-3 ovarian,> 73.9 µM
same,TGI,OVCAR-3 ovarian,> 100 µM
same,GI50,SK-MEL-2 melanoma,> 79.6 µM
same,TGI,SK-MEL-2 melanoma,> 100 µM
same,GI50,CCRF-CEM leukemia,> 63.3 µM
same,TGI,CCRF-CEM leukemia,> 100 µM
same,GI50,IGROV1 ovarian,> 100 µM
same,TGI,IGROV1 ovarian,> 100 µM
same,GI50,NCI-H522 lung,> 43.5 µM
same,TGI,NCI-H522 lung,> 100 µM
same,GI50,EKVX NSCLC,> 100 µM
same,TGI,EKVX NSCLC,> 100 µM
same,GI50,OVCAR-8 ovarian,> 100 µM
same,TGI,OVCAR-8 ovarian,> 100 µM
same,GI50,SF-268 CNS,> 100 µM
same,TGI,SF-268 CNS,> 100 µM
same,GI50,K-562 leukemia,> 68.3 µM
same,TGI,K-562 leukemia,> 100 µM
same,GI50,COLO 205 colon,> 89.8 µM
same,TGI,COLO 205 colon,> 100 µM
same,GI50,SW-620 colon,> 100 µM
same,TGI,SW-620 colon,> 100 µM
same,GI50,SK-OV-3 ovarian,> 83.6 µM
same,TGI,SK-OV-3 ovarian,> 100 µM
same,GI50,HT29 colon,> 100 µM
same,TGI,HT29 colon,> 100 µM
same,GI50,A549 NSCLC,> 100 µM
same,TGI,A549 NSCLC,> 100 µM
same,GI50,SF-539 CNS,> 100 µM
same,TGI,SF-539 CNS,> 100 µM
same,GI50,TK-10 renal,> 66 µM
same,TGI,TK-10 renal,> 100 µM
same,GI50,SF-295 CNS,> 100 µM
same,TGI,SF-295 CNS,> 100 µM
same,GI50,MDA-MB-231 breast,> 75.9 µM
same,TGI,MDA-MB-231 breast,> 100 µM
same,GI50,NCI-H322M lung,> 100 µM
same,TGI,NCI-H322M lung,> 100 µM
same,GI50,UO-31 renal,17.9 µM
same,TGI,UO-31 renal,34.3 µM
same,GI50,MCF7 breast,> 52.1 µM
same,TGI,MCF7 breast,> 100 µM
same,GI50,M14 melanoma,> 95.7 µM
same,TGI,M14 melanoma,> 100 µM
same,GI50,KM12 colon,98.3 µM
same,TGI,KM12 colon,> 100 µM
same,GI50,OVCAR-4 ovarian,> 72.7 µM
same,TGI,OVCAR-4 ovarian,> 100 µM
same,GI50,RXF 393 renal,> 81.5 µM
same,TGI,RXF 393 renal,> 100 µM
same,GI50,PC-3 prostate,> 76.7 µM
same,TGI,PC-3 prostate,> 100 µM
same,GI50,CAKI-1 renal,> 60.8 µM
same,TGI,CAKI-1 renal,> 100 µM
same,GI50,NCI-H460 NSCLC,> 100 µM
same,TGI,NCI-H460 NSCLC,> 100 µM
same,GI50,BT-549 breast,> 71.9 µM
same,TGI,BT-549 breast,> 100 µM
same,GI50,ACHN renal,> 100 µM
same,TGI,ACHN renal,> 100 µM
same,GI50,UACC-62 melanoma,> 57.2 µM
same,TGI,UACC-62 melanoma,> 100 µM
same,GI50,RPMI-8226 leukemia,20 µM
same,TGI,RPMI-8226 leukemia,> 60 µM
same,GI50,SK-MEL-5 melanoma,> 59.4 µM
same,TGI,SK-MEL-5 melanoma,> 100 µM
same,GI50,NCI-H23 lung,99.2 µM
same,TGI,NCI-H23 lung,> 100 µM
